Activity calls are given as the source filed them. No cut-off for these calls is given here.
Assays:
[1] = target: T1, Sodium channel protein type 9 subunit alpha (Homo sapiens, UniProt Q15858); test: Inhibition of human Nav1.7 expressed in HEK293 cells at 10 uM measured for 48 hrs by whole-cell patch clamp electrophysiology assay; type: cell-based
Target sequence in this assay (Q15858 whole entry, looked up): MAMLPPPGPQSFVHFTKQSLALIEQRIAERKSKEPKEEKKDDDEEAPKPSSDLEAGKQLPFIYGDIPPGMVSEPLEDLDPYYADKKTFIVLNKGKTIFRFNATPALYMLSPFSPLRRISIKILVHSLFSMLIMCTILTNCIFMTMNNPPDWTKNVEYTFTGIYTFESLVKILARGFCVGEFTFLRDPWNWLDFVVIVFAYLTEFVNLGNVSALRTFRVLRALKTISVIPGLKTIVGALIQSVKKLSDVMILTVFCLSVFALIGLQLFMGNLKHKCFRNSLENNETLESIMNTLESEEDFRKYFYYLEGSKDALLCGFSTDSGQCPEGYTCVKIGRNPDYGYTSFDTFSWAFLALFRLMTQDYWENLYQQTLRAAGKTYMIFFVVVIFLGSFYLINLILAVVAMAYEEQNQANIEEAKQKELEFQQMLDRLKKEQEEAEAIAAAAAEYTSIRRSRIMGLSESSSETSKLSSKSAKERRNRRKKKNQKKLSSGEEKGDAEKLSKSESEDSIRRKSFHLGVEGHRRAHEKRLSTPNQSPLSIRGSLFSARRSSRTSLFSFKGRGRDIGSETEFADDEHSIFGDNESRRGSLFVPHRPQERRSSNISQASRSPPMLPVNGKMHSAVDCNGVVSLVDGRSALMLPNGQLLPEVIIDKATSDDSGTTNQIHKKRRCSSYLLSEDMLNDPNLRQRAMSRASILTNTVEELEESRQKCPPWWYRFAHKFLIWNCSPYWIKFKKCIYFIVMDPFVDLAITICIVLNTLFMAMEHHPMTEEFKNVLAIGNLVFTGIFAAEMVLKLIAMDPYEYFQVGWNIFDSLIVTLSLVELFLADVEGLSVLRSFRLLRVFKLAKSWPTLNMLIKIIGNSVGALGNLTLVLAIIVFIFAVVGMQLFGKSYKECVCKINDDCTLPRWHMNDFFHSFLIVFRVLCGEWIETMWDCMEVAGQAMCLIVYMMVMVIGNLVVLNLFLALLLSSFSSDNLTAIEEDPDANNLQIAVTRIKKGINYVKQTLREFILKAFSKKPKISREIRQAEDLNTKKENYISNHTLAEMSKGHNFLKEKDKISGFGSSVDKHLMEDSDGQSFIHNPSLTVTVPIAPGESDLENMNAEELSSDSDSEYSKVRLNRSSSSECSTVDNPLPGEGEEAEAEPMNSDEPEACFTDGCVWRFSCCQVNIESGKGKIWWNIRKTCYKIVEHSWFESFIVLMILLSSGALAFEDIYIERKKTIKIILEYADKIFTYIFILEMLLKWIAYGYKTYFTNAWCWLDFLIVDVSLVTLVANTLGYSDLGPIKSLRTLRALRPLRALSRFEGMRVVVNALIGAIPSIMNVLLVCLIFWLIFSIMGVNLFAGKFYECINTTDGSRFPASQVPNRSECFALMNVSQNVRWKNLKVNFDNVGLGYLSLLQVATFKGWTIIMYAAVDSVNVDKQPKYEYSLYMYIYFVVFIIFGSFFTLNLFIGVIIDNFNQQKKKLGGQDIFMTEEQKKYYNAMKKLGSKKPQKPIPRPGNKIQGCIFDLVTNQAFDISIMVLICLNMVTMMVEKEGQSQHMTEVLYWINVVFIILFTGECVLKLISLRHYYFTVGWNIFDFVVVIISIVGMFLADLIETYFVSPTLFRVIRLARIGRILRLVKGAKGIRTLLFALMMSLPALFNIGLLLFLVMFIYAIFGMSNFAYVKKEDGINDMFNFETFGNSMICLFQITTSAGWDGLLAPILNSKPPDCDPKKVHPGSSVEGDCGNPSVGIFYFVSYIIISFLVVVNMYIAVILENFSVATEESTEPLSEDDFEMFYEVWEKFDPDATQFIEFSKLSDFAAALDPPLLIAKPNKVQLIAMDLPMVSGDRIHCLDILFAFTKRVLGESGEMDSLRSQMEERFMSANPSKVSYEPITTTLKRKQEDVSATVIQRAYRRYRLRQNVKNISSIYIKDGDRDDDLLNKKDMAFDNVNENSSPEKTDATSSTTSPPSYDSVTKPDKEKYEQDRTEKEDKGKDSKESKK

[2] = target: T1, Sodium channel protein type 9 subunit alpha; test: Inhibition of human Nav1.7 expressed in HEK293 cells at 1 uM measured for 48 hrs by whole-cell patch clamp electrophysiology assay; type: cell-based
Target sequence in this assay (Q15858 whole entry, looked up): as above

[3] = target: Sodium channel protein type 5 subunit alpha (Homo sapiens, UniProt Q14524); test: Inhibition of Nav1.5 (unknown origin) by whole-cell patch clamp assay
[4] = target: T1, Sodium channel protein type 9 subunit alpha; test: Inhibition of Nav1.7 (unknown origin) by whole-cell patch clamp assay
Target sequence in this assay (Q15858 whole entry): as the sequence (Q15858 whole entry, looked up) above

Mus musculus [5] = test: Antinociceptive activity in Kunming mouse at 10 mg/kg,ip measured for 1 to 4 hrs after administration by hot plate test; type: functional, organism-based; settings: time 1-4 hrs
Mus musculus [6] = test: Antinociceptive activity in Kunming mouse assessed as inhibition of acetic acid-induced abdominal constrictions at 10 to 40 mg/kg,ip pre-administrated for 2 hrs followed by acetic acid induction and measured for 15 mins by writhing test; type: functional, organism-based; settings: dose 10-40 mg/kg, time 135.0 min
[7] = Sedative activity in Kunming mouse assessed as effect on spontaneous locomotor activity at 20 mg/kg,ip administrated for 2 hrs and measured for 30 mins by open field test; type: toxicity, organism-based; settings: in vivo, 2.5 h
Mus musculus [8] = test: Antinociceptive activity in Kunming mouse at 40 mg/kg,ip measured for 1 to 4 hrs after administration by hot plate test; type: functional, organism-based; settings: time 1-4 hrs
[9] = target: Sodium channel protein type 4 subunit alpha (Homo sapiens, UniProt P35499); test: Inhibition of Nav1.4 (unknown origin) by whole-cell patch clamp assay
Mus musculus [10] = test: Antinociceptive activity in Kunming mouse at 20 mg/kg,ip measured for 1 to 4 hrs after administration by hot plate test; type: functional, organism-based; settings: time 1-4 hrs
Homo sapiens = species: Homo sapiens; test: Selectivity ratio of IC50 for inhibition of Nav1.7 (unknown origin) to IC50 for inhibition of Nav1.4 (unknown origin)

Chain of Sodium channel protein type 5 subunit alpha (Q14524 whole entry): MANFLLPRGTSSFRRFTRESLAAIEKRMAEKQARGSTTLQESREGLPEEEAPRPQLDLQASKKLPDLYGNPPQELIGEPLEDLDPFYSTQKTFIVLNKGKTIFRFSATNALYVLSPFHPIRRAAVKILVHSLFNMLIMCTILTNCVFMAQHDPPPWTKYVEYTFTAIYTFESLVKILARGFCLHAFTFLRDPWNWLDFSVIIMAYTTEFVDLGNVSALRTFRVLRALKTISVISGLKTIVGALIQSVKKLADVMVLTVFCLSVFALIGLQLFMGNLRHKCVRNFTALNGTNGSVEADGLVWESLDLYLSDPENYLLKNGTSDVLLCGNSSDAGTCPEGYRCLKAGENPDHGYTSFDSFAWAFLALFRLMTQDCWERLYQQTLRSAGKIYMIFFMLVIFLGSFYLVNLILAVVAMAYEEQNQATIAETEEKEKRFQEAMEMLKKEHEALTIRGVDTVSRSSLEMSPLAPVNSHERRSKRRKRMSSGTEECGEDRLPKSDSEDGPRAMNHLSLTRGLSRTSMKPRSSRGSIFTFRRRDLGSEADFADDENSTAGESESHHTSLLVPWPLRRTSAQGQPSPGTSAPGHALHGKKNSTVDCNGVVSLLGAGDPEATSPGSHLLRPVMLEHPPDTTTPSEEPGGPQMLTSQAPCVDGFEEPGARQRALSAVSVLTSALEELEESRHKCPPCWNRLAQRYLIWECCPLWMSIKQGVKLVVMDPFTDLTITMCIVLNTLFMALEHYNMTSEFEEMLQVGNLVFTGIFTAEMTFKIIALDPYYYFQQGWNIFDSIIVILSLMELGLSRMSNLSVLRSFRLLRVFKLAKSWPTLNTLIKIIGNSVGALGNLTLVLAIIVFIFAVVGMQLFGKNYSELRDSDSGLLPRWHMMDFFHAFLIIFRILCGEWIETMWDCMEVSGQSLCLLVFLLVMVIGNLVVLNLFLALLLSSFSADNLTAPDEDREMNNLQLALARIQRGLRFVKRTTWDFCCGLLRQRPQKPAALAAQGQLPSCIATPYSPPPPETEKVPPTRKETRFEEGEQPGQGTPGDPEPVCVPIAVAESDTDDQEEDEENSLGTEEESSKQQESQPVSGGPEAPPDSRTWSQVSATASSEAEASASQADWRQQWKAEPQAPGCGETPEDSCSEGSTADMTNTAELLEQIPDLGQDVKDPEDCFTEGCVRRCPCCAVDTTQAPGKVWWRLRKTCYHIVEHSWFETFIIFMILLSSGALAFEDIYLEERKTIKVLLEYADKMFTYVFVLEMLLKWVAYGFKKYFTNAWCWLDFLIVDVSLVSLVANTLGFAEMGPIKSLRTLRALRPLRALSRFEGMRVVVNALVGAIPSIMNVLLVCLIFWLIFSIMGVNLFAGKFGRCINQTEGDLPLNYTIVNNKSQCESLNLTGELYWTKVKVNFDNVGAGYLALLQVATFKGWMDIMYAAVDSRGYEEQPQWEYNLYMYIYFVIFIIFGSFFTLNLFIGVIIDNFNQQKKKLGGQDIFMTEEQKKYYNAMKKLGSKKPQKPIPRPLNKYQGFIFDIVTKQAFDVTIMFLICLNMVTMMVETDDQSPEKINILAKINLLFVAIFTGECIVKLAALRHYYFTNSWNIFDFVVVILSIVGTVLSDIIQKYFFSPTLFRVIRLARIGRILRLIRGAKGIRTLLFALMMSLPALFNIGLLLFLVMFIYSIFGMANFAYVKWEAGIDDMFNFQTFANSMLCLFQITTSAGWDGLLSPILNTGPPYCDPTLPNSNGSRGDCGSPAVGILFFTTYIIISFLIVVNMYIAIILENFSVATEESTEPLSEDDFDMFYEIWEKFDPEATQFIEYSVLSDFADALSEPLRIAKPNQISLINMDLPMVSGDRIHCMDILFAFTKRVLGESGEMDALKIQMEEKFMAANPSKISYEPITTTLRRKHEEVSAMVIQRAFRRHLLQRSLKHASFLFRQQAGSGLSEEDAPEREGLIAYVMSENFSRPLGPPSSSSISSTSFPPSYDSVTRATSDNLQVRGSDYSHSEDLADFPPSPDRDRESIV

SMILES	inhibition [1] [%]	inhibition [2] [%]	further results
O=C(NS(=O)(=O)C1CC1)c1cc(C2CC2)c(OCCC2CCC3(CCN(Cc4ccccc4)CC3)C2)cc1F (stereo not given)	96.5		
O=C(NS(=O)(=O)C1CC1)c1ccc(OCC2CCC3(CCNCC3)C2)cc1 (stereo not given)	0.2		
O=C(NS(=O)(=O)C1CC1)c1ccc(OC2CCC3(CCN(Cc4ccccc4)CC3)C2)cc1 (stereo not given)	45.7		
O=C(NS(=O)(=O)C1CC1)c1cc(Cl)c(OCCC2CCC3(CCN(Cc4ccc(Cl)cc4)CC3)C2)cc1F (stereo not given)	87.2	23.8	
O=C(NS(=O)(=O)C1CC1)c1cc(Cl)c(OCCC2CCC3(CCN(Cc4ccsc4)CC3)C2)cc1F (stereo not given)	95.9	61.4	IC50 [3]: 54.7 µM; IC50 [4]: 840 nM
O=C(NS(=O)(=O)C1CC1)c1cc(Cl)c(OCCC2CCC3(CCN(Cc4ccco4)CC3)C2)cc1F (stereo not given)	97.6	60	IC50 [4]: 610 nM
O=C(NS(=O)(=O)C1CC1)c1cc(Cl)c(OCCC2CCC3(CCN(Cc4cc(Cl)cc(Cl)c4)CC3)C2)cc1F (stereo not given)	77.2		
O=C(NS(=O)(=O)C1CC1)c1ccc(OCCC2CCC3(CCN(Cc4ccccc4)CC3)C2)cc1 (stereo not given)	92		
O=C(NS(=O)(=O)C1CC1)c1cc(Cl)c(OCCC2CCC3(CCN(Cc4ccccc4)CC3)C2)cc1F (stereo not given)	102	70.8	Activity (Mus musculus [5]): inactive; Activity (Mus musculus [6]): Dose-Dependent Effect; Activity [7]: Non-Toxic; Activity (Mus musculus [8]): inactive; IC50 [3]: 46.2 µM; IC50 [4]: 460 nM; IC50 [9]: 4.88 µM; Activity (Mus musculus [10]): Active; Ratio IC50 (Homo sapiens): 10
C[C@H](NCc1ccc(OCc2ccccc2F)cc1)C(N)=O [RALFINAMIDE]	30.9	12.5	IC50 [4]: 35200 nM; Activity (Mus musculus [10]): Active
O=C(NS(=O)(=O)C1CC1)c1cc(Cl)c(OCCC2CCC3(CCN(CCCc4ccccc4)CC3)C2)cc1F (stereo not given)	72.8	21.2	
O=C(NS(=O)(=O)C1CC1)c1ccc(OCCC2CCC3(CCNCC3)C2)cc1 (stereo not given)	8.4		
O=C(NS(=O)(=O)C1CC1)c1cc(Cl)c(OCCC2CCC3(CCN(Cc4cccc(C(F)(F)F)c4)CC3)C2)cc1F (stereo not given)	55.9	16.1	
O=C(NS(=O)(=O)C1CC1)c1cc(F)c(OCCC2CCC3(CCN(Cc4ccccc4)CC3)C2)cc1F (stereo not given)	99.7		IC50 [4]: 1150 nM
CCN1CCC2(CCC(Oc3ccc(C(=O)NS(=O)(=O)C4CC4)cc3)C2)CC1 (stereo not given)	16.8		
CCN1CCC2(CCC(CCOc3ccc(C(=O)NS(=O)(=O)C4CC4)cc3)C2)CC1 (stereo not given)	24.2		
O=C(NS(=O)(=O)C1CC1)c1ccc(OC2CC3(CCNCC3)C2)cc1	15.4		

SMILES	inhibition [1] [%]	inhibition [2] [%]	further results
CCc1ccc(CN2CCC3(CCC(CCOc4cc(F)c(C(=O)NS(=O)(=O)C5CC5)cc4Cl)C3)CC2)cc1 (stereo not given)	93.9	29.4	
CCN1CCC2(CCC(CCOc3cc(F)c(C(=O)NS(=O)(=O)C4CC4)cc3Cl)C2)CC1 (stereo not given)	24.3		
CCN1CCC2(CCC(COc3ccc(C(=O)NS(=O)(=O)C4CC4)cc3)C2)CC1 (stereo not given)	1.4		
CCN1CCC2(CCC(Oc3ccc(C(=O)NS(=O)(=O)C4CC4)cc3)CC2)CC1	22.9		
O=C(NS(=O)(=O)C1CC1)c1cc(Cl)c(OCCC2CCC3(CCN(Cc4cccc5ccccc45)CC3)C2)cc1F (stereo not given)	97.1	33.5	
COc1ccc(CN2CCC3(CCC(CCOc4cc(F)c(C(=O)NS(=O)(=O)C5CC5)cc4Cl)C3)CC2)cc1 (stereo not given)	89.3	31.1	
O=C(NS(=O)(=O)C1CC1)c1ccc(OC2CCC3(CCNCC3)C2)cc1 (stereo not given)	71.4		
O=C(NS(=O)(=O)C1CC1)c1ccc(OC2CCC3(CC2)CCN(Cc2ccccc2)CC3)cc1	13.7		
O=C(NS(=O)(=O)C1CC1)c1cc(Cl)c(OCCC2CCC3(CCN(CCc4ccccc4)CC3)C2)cc1F (stereo not given)	75.1	27.5	
O=C(NS(=O)(=O)C1CC1)c1cc(Cl)c(OCCC2CCC3(CCN(CC4CCCCC4)CC3)C2)cc1F (stereo not given)	65.5	20.1	
CCN1CCC2(CC1)CC(Oc1ccc(C(=O)NS(=O)(=O)C3CC3)cc1)C2	14.3		
Cc1cc(C(=O)NS(=O)(=O)C2CC2)c(F)cc1OCCC1CCC2(CCN(Cc3ccccc3)CC2)C1 (stereo not given)	101		IC50 [4]: 1040 nM
O=C(NS(=O)(=O)C1CC1)c1ccc(OCC2CCC3(CCN(Cc4ccccc4)CC3)C2)cc1 (stereo not given)	57.4		
O=C(NS(=O)(=O)C1CC1)c1ccc(OC2CC3(CCN(Cc4ccccc4)CC3)C2)cc1	21.5		
O=C(NS(=O)(=O)C1CC1)c1ccc(OC2CCC3(CCNCC3)CC2)cc1	11.2		
O=C(NS(=O)(=O)C1CC1)c1cc(Cl)c(OCCC2(F)CCN(Cc3cc(Cl)cc(Cl)c3)CC2)cc1F	89.6		IC50 [3]: 58.9 µM; IC50 [4]: 1010 nM; IC50 [9]: 2.7 µM; Ratio IC50 (Homo sapiens): 3
